Data published in patent publication US4407806A, “Fungicidal, herbicidal and plant growth regulating pyridyl-containing ethers” (Chevron Research Company, priority 1981, dated 1983).

Tests used:
Type in all cases: in vivo
[1] = tested on: celery late blight organism Septoria apii; experiment: whole plant or invertebrate; details: 336 h, read-out: Fungicidal Activity Control %, Celery L.B.
Cotton plants = experiment: Cotton Regrowth; details: Gossypium hirsutum, 13 to 18 days, 100% is total inhibition, read-out: Regrowth (percent inhibition of cotton regrowth)
Method: Compounds of this invention were tested to determine their plant-growth regulating effects on cotton leaf regrowth.
Cotton plants, 4 to 5 weeks old, containing 4 true leaves above the cotyledonary leaves are employed. Growth beyond the second true leaf was removed. Within 24 hours the plants are sprayed with a 2000 ppm solution of the test compound. After spraying, the plants are transferred to a greenhouse maintained at 85° F. (±5° F.) and incubated there for from 13 to 18 days. The plants during this period are sub-irrigated in 1/4" of water.
After this period, regrowth is determined as a percent inhibition of auxiliary bud regrowth--100% is total inhibition while 0% is no inhibition.

[2] = tested on: grape downy mildew organism Plasmopara viticola; experiment: Grape Downy Mildew control (detached grape leaves); details: vs untreated check, read-out: Fungicidal Activity Control %, Grape D.M.
[3] = tested on: Tomato Late Blight organism Phytophthora infestans; experiment: whole plant or invertebrate; details: 168 h, read-out: Fungicidal Activity Control %, Tomato L.B.
Idaho pinto bean plants = experiment: Axillary Bud Growth Inhibition Of Pinto Bean Plants; details: 288 h; 625-ppm; twelve days after treatment; vs untreated check; read-out: Bud Inhib (percent inhibition of axillary bud growth)
Method: Compounds of this invention were tested to determine their plant-growth-retarding effects on axillary bud growth of pinto beans.
Idaho pinto bean plants (13-16 days old) having monofoliate leaves fully developed and first trifoliates beginning to unfold were used. All growth 5 mm above the monofoliate leaf node was removed with forceps 1 to 4 hours prior to treatment with the test compounds. Four plants were used for each test compound.
A 625-ppm solution of the test compound in a 2% aqueous acetone solution containing a small amount of a nonionic surfactant was sprayed onto the pinto bean plants until runoff. After drying, the treated plants were transferred to a greenhouse maintained at 20°-23° C. and watered at regular intervals. Twelve days after treatment, the bud growth at the axil of the monofoliate leaf was determined and expressed as percent inhibition of axillary bud growth as compared to untreated check plants.

[4] = tested on: Pigweed (Amaranthus retraflexus); experiment: Pre-emergent herbicidal test; details: 504 h, pre-emergence, 33 micrograms/cm^2, 3 weeks, 0-to-100 scale
Method: (§1) An acetone solution of the test compound was prepared by mixing 750 mg of the compound, 220 mg of a nonionic surfactant and 25 ml of acetone. This solution was added to approximately 125 ml of water containing 156 mg of surfactant.
(§2) Seeds of the test vegetation were planted in a pot of […] and the test solution was sprayed uniformly onto the soil surface at a dose of 33 micrograms/cm^2. The pot was watered and placed in a greenhouse. […] At the end of this period, the herbicidal effectiveness of the compound was rated based on the physiological observations. A 0-to-100 scale was used, 0 representing no phytotoxicity, 100 representing complete kill.

Soybean [5] = experiment: Pre-emergent herbicidal test; details: Glycine max, 504 h; pre-emergence; 33 micrograms/cm^2; 3 weeks; 0-to-100 scale; read-out: Herbicidal Activity Pre-Emergence % Control, Soybean
Method: as §1, §2

[6] = tested on: Crabgrass (Digitaria sanguinalis); experiment: Pre-emergent herbicidal test; details: 504 h, pre-emergence, 33 micrograms/cm^2, 3 weeks, 0-to-100 scale, read-out: Herbicidal Activity Pre-Emergence % Control, Crab Grass
Method: as §1, §2

[7] = tested on: Mustard (Brassica arvensis); experiment: Pre-emergent herbicidal test; details: 504 h, pre-emergence, 33 micrograms/cm^2, 3 weeks, 0-to-100 scale
Method: as §1, §2

Wild Oats (Avena fatura) [8] = experiment: Pre-emergent herbicidal test; details: 504 h, pre-emergence, 33 micrograms/cm^2, 3 weeks, 0-to-100 scale
Method: as §1, §2

[9] = tested on: Watergrass (Echinochloa crusgalli); experiment: Pre-emergent herbicidal test; details: Echinochloa crus-galli, 504 h; pre-emergence; 33 micrograms/cm^2; 3 weeks; 0-to-100 scale; read-out: Herbicidal Activity Pre-Emergence % Control, Water Grass
Method: as §1, §2

[10] = tested on: Lambsquarter (Chenopodium album); experiment: Pre-emergent herbicidal test; details: 504 h, pre-emergence, 33 micrograms/cm^2, 3 weeks, 0-to-100 scale, read-out: Herbicidal Activity Pre-Emergence % Control, L'Qtr.
Method: as §1, §2

[11] = tested on: tomato Early Blight organism, Alternaria solani conidia; experiment: Tomato Early Blight control; details: 288 h, about 12 days in greenhouse, vs untreated check, read-out: Fungicidal Activity Control %, Tomato E.B.
Method: Compounds of the invention were tested for the control of the tomato Early Blight organism, Alternaria solani conidia. Tomato (variety Bonny Best) seedlings of 6 to 7 weeks old were used. The tomato plants were sprayed with a 250 ppm solution of the test compound in an acetone-and-water solution containing a small amount of a nonionic emulsifier. The sprayed plants were inoculated one day later with the organism, placed in the environmental chamber and incubated at […] and 100% relative humidity for 24 hours. Following the incubation, the plants were maintained in a greenhouse for about 12 days. Percent diseases control was based on the percent disease development on untreated check plants.

[12] = tested on: Bean Powdery Mildew organism Erisiphe polygoni; experiment: Bean Powdery Mildew control; details: 240 h, 10 days, vs untreated check, read-out: Fungicidal Activity Control %, Bean P.M.
Method: The compounds of the invention were tested for the control of the Bean Powdery Mildew organism […] polygoni. Seedling bean plants were sprayed with a 250 ppm solution of the test compound in acetone, water and a nonionic emulsifier. The sprayed plants were then inoculated 1 day later with organism. […] The percent disease control provided by a given test compound was based on the percent disease reduction relative to the untreated check plants.

[13] = tested on: Pigweed (Amaranthus retraflexus); experiment: Post-emergent herbicidal test; details: 504 h, post-emergence, 33 micrograms/cm^2, 3 weeks, 0-to-100 scale
Soybean [14] = experiment: Post-emergent herbicidal test; details: Glycine max, 504 h, post-emergence, 33 micrograms/cm^2, 3 weeks, 0-to-100 scale, read-out: Herbicidal Activity Post-Emergence % Control, Soybean
[15] = tested on: Crabgrass (Digitaria sanguinalis); experiment: Post-emergent herbicidal test; details: 504 h, post-emergence, 33 micrograms/cm^2, 3 weeks, 0-to-100 scale, read-out: Herbicidal Activity Post-Emergence % Control, Crab Grass
[16] = tested on: Mustard (Brassica arvensis); experiment: Post-emergent herbicidal test; details: 504 h, post-emergence, 33 micrograms/cm^2, 3 weeks, 0-to-100 scale
Wild Oats (Avena fatura) [17] = experiment: Post-emergent herbicidal test; details: 504 h, post-emergence, 33 micrograms/cm^2, 3 weeks, 0-to-100 scale
[18] = tested on: Watergrass (Echinochloa crusgalli); experiment: Post-emergent herbicidal test; details: Echinochloa crus-galli, 504 h, post-emergence, 33 micrograms/cm^2, 3 weeks, 0-to-100 scale, read-out: Herbicidal Activity Post-Emergence % Control, Water Grass
[19] = tested on: Lambsquarter (Chenopodium album); experiment: Post-emergent herbicidal test; details: 504 h, post-emergence, 33 micrograms/cm^2, 3 weeks, 0-to-100 scale, read-out: Herbicidal Activity Post-Emergence % Control, L'Qtr.

Row | SMILES | pest or weed control at 250 ppm [1] [%] | inhibition at 2000 ppm (Cotton plants) [%] | pest or weed control at 250 ppm [2] [%] | pest or weed control at 250 ppm [3] [%] | pest or weed control at 625 µg/mL (Idaho pinto bean plants) [%] | pest or weed control at 33 µg/cm2 [4] [%] | plant injury at 33 µg/cm2 (Soybean [5]) [%] | pest or weed control at 33 µg/cm2 [6] [%] | pest or weed control at 33 µg/cm2 [7] [%] | pest or weed control at 33 µg/cm2 (Wild Oats (Avena fatura) [8]) [%] | pest or weed control at 33 µg/cm2 [9] [%] | pest or weed control at 33 µg/cm2 [10] [%] | pest or weed control at 250 ppm [12] [%] | pest or weed control at 5000 ppm, 33 µg/cm2 [13] [%] | plant injury at 5000 ppm, 33 µg/cm2 (Soybean [14]) [%] | pest or weed control at 5000 ppm, 33 µg/cm2 [15] [%] | pest or weed control at 5000 ppm, 33 µg/cm2 [16] [%] | pest or weed control at 5000 ppm, 33 µg/cm2 (Wild Oats (Avena fatura) [17]) [%] | pest or weed control at 5000 ppm, 33 µg/cm2 [18] [%] | pest or weed control at 5000 ppm, 33 µg/cm2 [19] [%] | further results
1 | C=CCOC(c1cccnc1)c1ccc(Cl)cc1Cl (stereo not shown) [Compound 3, 3-pyridyl-2,4-dichlorophenylcarbinol allylether] | 48 | 0 | 15 | 0 | 25 | 85 | 0 | 90 | 45 | 0 | 73 | 98 | 100 | 50 | 33 | 0 | 25 | 0 | 0 | 60 | pest or weed control at 250 ppm [11]: 4%
2 | C=C(Cl)COC(c1cccnc1)c1ccc(Cl)cc1Cl (stereo not shown) [Compound 4, 3-pyridyl-2,4-dichlorophenylcarbinol 2-chloroallylether] | 83 | 0 | 27 | 0 | 30 | 35 | 0 | 70 | 30 | 33 | 83 | 73 | 100 | 45 | 28 | 0 | 58 | 0 | 0 | 55 | pest or weed control at 250 ppm [11]: 73%
3 | OC(c1cccnc1)c1ccc(Cl)cc1Cl (stereo not shown) [Compound 2, 3-pyridyl-2,4-dichlorophenylcarbinol] | 31 | 0 | 25 | 0 | 0 | 0 | 0 | 0 | 0 | 0 | 0 | 0 | 100 | 0 | 0 | 0 | 0 | 0 | 0 | 0 | –
4 | Clc1ccc(COC(c2cccnc2)c2ccc(Cl)cc2Cl)c(Cl)c1 (stereo not shown) [Compound 1, 3-pyridyl-2,4-dichlorophenylcarbinol 2,4-dichlorobenzylether] | 88 | 55 | 0 | 4 | 85 | 0 | 0 | 0 | 0 | 0 | 0 | 0 | 100 | 30 | 20 | 0 | 30 | 0 | 0 | 20 | –
5 | c1ccc(-c2ccc(COC(c3ccccc3)c3cccnc3)cc2)cc1 (stereo not shown) [Compound 11, 3-pyridylphenylcarbinol 4-phenylbenzylether] | 47 | – | 13 | 0 | 0 | – | – | – | – | – | – | – | 100 | – | – | – | – | – | – | – | pest or weed control at 250 ppm [11]: 5%
